In patent publication US20260053932A1, “COMPOUNDS AND METHODS FOR THE TARGETED DEGRADATION OF ANDROGEN RECEPTOR AND ASSOCIATED METHODS OF USE” (Arvinas Operations, Inc., priority 2020, published 2026):
Like-named read-outs stand apart in the source and are kept apart here.

Test system: androgen receptor (AR) in LNCaP and/or VCaP cells
Experiment: Androgen Receptor ELISA assay (AR degradation)
Format: cell-based
Details: degradation of AR ELISA in LNCaP and/or VCaP cells, read-out: DC50 Code*
In short: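 VCaP cells grown ≥3 days, then treated 5 h with compound in media containing 1 nM R1881 (10× stock). Cells lysed and AR quantified by sandwich ELISA (mouse AR detection Ab, HRP anti-mouse, TMB). DC50 and Dmax derived from AR degradation.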

SMILES | DC50 (Table 2C) | DC50
COCCN(CC1CCN(c2cnc(C(=O)N[C@H]3C(C)(C)[C@H](Oc4cc(C)c(C#N)c(C)c4)C3(C)C)cn2)CC1)[C@H]1C[C@H](Oc2ccc3c(c2)C(=O)N(C2CCC(=O)NC2=O)C3)C1 (mixture of isomers) [compound 223, rac-N-((1r,3r)-3-(4-cyano-3,5-dimethylphenoxy)-2,2,4,4-tetramethylcyclobutyl)-5-(4-((((1r,3r)-3-((2-(2,6-dioxopiperidin-3-yl)-3-oxoisoindolin-5-yl)oxy)cyclobutyl)(2-methoxyethyl)amino)methyl)piperidin-1-yl)pyrazine-2-carboxamide] | < 1 nM | 
Cc1cc(O[C@H]2C(C)(C)[C@H](NC(=O)c3cnc(N4CCC(CN(C)[C@H]5C[C@H](Oc6ccc7c(c6)C(=O)N(C6CCC(=O)NC6=O)C7=O)C5)CC4)cn3)C2(C)C)cc(C)c1C#N (mixture of isomers) [compound 224, rac-N-((1r,3r)-3-(4-cyano-3,5-dimethylphenoxy)-2,2,4,4-tetramethylcyclobutyl)-5-(4-((((1r,3r)-3-((2-(2,6-dioxopiperidin-3-yl)-1,3-dioxoisoindolin-5-yl)oxy)cyclobutyl) (methyl)amino)methyl)piperidin-1-yl)pyrazine-2-carboxamide] | < 1 nM | 
Cc1cc(O[C@H]2C(C)(C)[C@H](NC(=O)c3ccc(N4CCC(CN(CCO)[C@H]5C[C@H](Oc6ccc7c(c6)C(=O)N(C6CCC(=O)NC6=O)C7=O)C5)CC4)cc3)C2(C)C)cc(C)c1C#N (mixture of isomers) [compound 225, rac-N-((1r,3r)-3-(4-cyano-3,5-dimethylphenoxy)-2,2,4,4-tetramethylcyclobutyl)-4-(4-((((1r,3r)-3-((2-(2,6-dioxopiperidin-3-yl)-1,3-dioxoisoindolin-5-yl)oxy)cyclobutyl)(2-hydroxyethyl)amino)methyl)piperidin-1-yl)benzamide] | < 1 nM | 
COc1cc(O[C@H]2C[C@H](N(CC3CCN(c4cnc(C(=O)N[C@H]5C(C)(C)[C@H](Oc6ccc(C#N)c(Cl)c6)C5(C)C)cn4)CC3)C(C)C)C2)cc2c1CN(C1CCC(=O)NC1=O)C2=O (mixture of isomers) [compound 226, rac-N-((1r,3r)-3-(3-chloro-4-cyanophenoxy)-2,2,4,4-tetramethylcyclobutyl)-5-(4-((((1r,3r)-3-((2-(2,6-dioxopiperidin-3-yl)-7-methoxy-3-oxoisoindolin-5-yl)oxy)cyclobutyl) (isopropyl)amino)methyl)piperidin-1-yl)pyrazine-2-carboxamide] | < 1 nM | 
Cc1cc(O[C@H]2C(C)(C)[C@H](NC(=O)c3ccc(N4CCC5(CC4)CN([C@H]4C[C@H](Oc6ccc7c(c6)C(=O)N(C6CCC(=O)NC6=O)C7=O)C4)CCO5)cc3)C2(C)C)cc(C)c1C#N (mixture of isomers) [compound 228, rac-N-((1r,3r)-3-(4-cyano-3,5-dimethylphenoxy)-2,2,4,4-tetramethylcyclobutyl)-4-(4-((1r,3r)-3-((2-(2,6-dioxopiperidin-3-yl)-1,3-dioxoisoindolin-5-yl)oxy)cyclobutyl)-1-oxa-4,9-diazaspiro[5.5]undecan-9-yl)benzamide] | < 1 nM | 
Cc1cc(O[C@H]2C(C)(C)[C@H](NC(=O)c3cnc(N4CCC(CN(CCO)[C@H]5C[C@H](Oc6ccc7c(c6)C(=O)N(C6CCC(=O)NC6=O)C7=O)C5)CC4)cn3)C2(C)C)cc(C)c1C#N (mixture of isomers) [compound 229, rac-N-((1r,3r)-3-(4-cyano-3,5-dimethylphenoxy)-2,2,4,4-tetramethylcyclobutyl)-5-(4-((((1r,3r)-3-((2-(2,6-dioxopiperidin-3-yl)-1,3-dioxoisoindolin-5-yl)oxy)cyclobutyl)(2-hydroxyethyl)amino)methyl)piperidin-1-yl)pyrazine-2-carboxamide] | < 1 nM | 
COCCN(CC1CCN(c2nc(C)c(C(=O)N[C@H]3C(C)(C)[C@H](Oc4ccc(C#N)c(OC)c4)C3(C)C)c(C)n2)CC1)[C@H]1C[C@H](Oc2cc(OC)c3c(c2)C(=O)N(C2CCC(=O)NC2=O)C3=O)C1 (mixture of isomers) [compound 232, rac-N-((1r,3r)-3-(4-cyano-3-methoxyphenoxy)-2,2,4,4-tetramethylcyclobutyl)-2-(4-((((1r,3r)-3-((2-(2,6-dioxopiperidin-3-yl)-7-methoxy-1,3-dioxoisoindolin-5-yl)oxy)cyclobutyl)(2-methoxyethyl)amino)methyl)piperidin-1-yl)-4,6-dimethylpyrimidine-5-carboxamide] | < 1 nM | 
Cc1cc(O[C@H]2C(C)(C)[C@H](NC(=O)c3cnc(N4CCC5(CC4)CN([C@H]4C[C@H](Oc6ccc7c(c6)C(=O)N(C6CCC(=O)NC6=O)C7=O)C4)CCO5)cn3)C2(C)C)cc(C)c1C#N (mixture of isomers) [compound 236, rac-N-((1r,3r)-3-(4-cyano-3,5-dimethylphenoxy)-2,2,4,4-tetramethylcyclobutyl)-5-(4-((1r,3r)-3-((2-(2,6-dioxopiperidin-3-yl)-1,3-dioxoisoindolin-5-yl)oxy)cyclobutyl)-1-oxa-4,9-diazaspiro[5.5]undecan-9-yl)pyrazine-2-carboxamide] | < 1 nM | 
CCOc1cc(O[C@H]2C[C@H](N(CC3CCN(c4cnc(C(=O)N[C@H]5C(C)(C)[C@H](Oc6cc(C)c(C#N)c(C)c6)C5(C)C)cn4)CC3)C(C)C)C2)cc2c1C(=O)N(C1CCC(=O)NC1=O)C2=O (mixture of isomers) [compound 238, rac-N-((1r,3r)-3-(4-cyano-3,5-dimethylphenoxy)-2,2,4,4-tetramethylcyclobutyl)-5-(4-((((1r,3r)-3-((2-(2,6-dioxopiperidin-3-yl)-7-ethoxy-1,3-dioxoisoindolin-5-yl)oxy)cyclobutyl) (isopropyl)amino)methyl)piperidin-1-yl)pyrazine-2-carboxamide] | 1 to 10 nM | 
COCCN(CC1CCN(c2nc(C)c(C(=O)N[C@H]3C(C)(C)[C@H](Oc4ccc(C#N)c(OC)c4)C3(C)C)c(C)n2)CC1)[C@H]1C[C@H](Oc2ccc3c(c2)C(=O)N(C2CCC(=O)NC2=O)C3=O)C1 (mixture of isomers) [compound 240, rac-N-((1r,3r)-3-(4-cyano-3-methoxyphenoxy)-2,2,4,4-tetramethylcyclobutyl)-2-(4-((((1r,3r)-3-((2-(2,6-dioxopiperidin-3-yl)-1,3-dioxoisoindolin-5-yl)oxy)cyclobutyl)(2-methoxyethyl)amino)methyl)piperidin-1-yl)-4,6-dimethylpyrimidine-5-carboxamide] |  | 1 to 10 nM
CC1(C)[C@H](NC(=O)c2ccc(N3CCC(CN4CCN(c5ccc6c(c5)C(=O)N(C5(C#N)CCC(=O)NC5=O)C6)CC4)CC3)cc2)C(C)(C)[C@H]1Oc1ccc(C#N)c(Cl)c1 (mixture of isomers) [compound 241, rac-N-((1r,3r)-3-(3-chloro-4-cyanophenoxy)-2,2,4,4-tetramethylcyclobutyl)-4-(4-((4-(2-(3-cyano-2,6-dioxopiperidin-3-yl)-3-oxoisoindolin-5-yl)piperazin-1-yl)methyl)piperidin-1-yl)benzamide] |  | 1 to 10 nM
COc1cc(O[C@H]2C(C)(C)[C@H](NC(=O)c3cnc(N4CCC(CN(CC[S+]([O-])CC5(C)COC5)[C@H]5C[C@H](Oc6ccc7c(c6)C(=O)N(C6CCC(=O)NC6=O)C7=O)C5)CC4)cn3)C2(C)C)ccc1C#N (mixture of isomers) [compound 243, rac-N-((1r,3r)-3-(4-cyano-3-methoxyphenoxy)-2,2,4,4-tetramethylcyclobutyl)-5-(4-((((1r,3r)-3-((2-(2,6-dioxopiperidin-3-yl)-1,3-dioxoisoindolin-5-yl)oxy)cyclobutyl)(2-(((3-methyloxetan-3-yl)methyl)sulfinyl)ethyl)amino)methyl)piperidin-1-yl)pyrazine-2-carboxamide] |  | 1 to 10 nM
